Results: patent US20200022370A1, “MICROBIOCIDAL OXADIAZOLE DERIVATIVES” (SYNGENTA PARTICIPATIONS AG, priority 2016, published 2020)

What was measured:
Phakopsora pachyrhizi = Phakopsora pachyrhizi / soybean / leaf disc preventative (Asian soybean rust); format: in vivo; details: foliar, 200 ppm in the applied formulation, soybean leaf disks, inoculated one day after application, vs untreated, 12 to 14 days after application, read-out: disease control
Outline: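 Soybean leaf discs on water agar sprayed with formulated compound diluted in water, then inoculated one day later with spore suspension on the lower surface. Held 24-36 h dark at 20 °C, 75% rh, then 12 h light/day; percent disease control versus untreated scored 12-14 days after application.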

[1] = test system: Glomerella lacenarium (Colletotrichum lacenarium); experiment: Glomerella lacenarium (Colletotrichum lacenarium) liquid culture / cucumber / preventative (anthracnose); format: cell-based; details: 20 ppm, liquid culture in PDB, 24° C., inhibition of growth measured photometrically 3 to 4 days after application, vs untreated, read-out: disease control
Outline: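 Cryopreserved conidia in potato dextrose broth were added to test compound in a 96-well microtiter plate and incubated at 24 °C. Growth inhibition read photometrically 3–4 days after application, as percent activity versus untreated check.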

Uromyces viciae-fabae = Uromyces viciae-fabae / field bean / leaf disc preventative (faba-bean rust); format: in vivo; details: foliar, 288 h, 100 ppm in the applied formulation, field bean leaf discs, inoculated two hours after application, vs untreated, 12 days after application, read-out: disease control
Procedure: Leaf disks or leaf segments of various plant species are cut from plants grown in a greenhouse. The cut leaf disks or segments are placed in multiwell plates (24-well format) onto water agar. The leaf disks are sprayed with a test solution before (preventative) or after (curative) inoculation. Compounds to be tested are prepared as DMSO solutions (max. 10 mg/ml) which are diluted to the appropriate concentration with 0.025% Tween20 just before spraying. The inoculated leaf disks or segments are incubated under defined conditions (temperature, relative humidity, light, etc.) according to the respective test system. A single evaluation of disease level is carried out 3 to 14 days after inoculation, depending on the pathosystem. Percent disease control relative to the untreated check leaf disks or segments is then calculated.
Example 5: Fungicidal Activity Against Uromyces viciae-fabael Field Bean/Leaf Disc Preventative (Faba-Bean Rust)
Field bean leaf discs are placed on water agar in multiwell plates (96-well format) and 10 μl of the Formulated test compound diluted in acetone and a spreader pipetted onto the leaf disc. Two hours after application leaf discs are inoculated by spraying a spore suspension on the lower leaf surface. The leaf discs are incubated in a climate cabinet at 22° C. with 18 hour day and 70% relative humidity. The activity of a compound is assessed as percent disease control compared to untreated when an appropriate level of disease damage appears in untreated check leaf disks (12 days after application).
The following compounds at 100 ppm in the applied Formulation give at least 80% disease control in this test when compared to untreated control leaf discs under the same conditions, which show extensive disease development.

[2] = test system: Puccinia recondita f. Sp. Tritici; experiment: Puccinia recondita f. sp. tritici / wheat / leaf disc preventative (brown rust); format: in vivo; details: foliar, 200 ppm in the applied formulation, wheat leaf segments cv. Kanzler, inoculated 1 day after application, vs untreated, 7 to 9 days after application, read-out: disease control
Outline: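 Preventative leaf-segment test on wheat cv. Kanzler: formulated compound diluted in water was sprayed onto segments on agar, with spore inoculation 1 day later. Incubated at 19° C, 75% rh, 12 h light/12 h dark; percent disease control versus untreated scored 7 to 9 days after application.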

[3] = test system: Puccinia recondita f. Sp. Tritici; experiment: Puccinia recondita f. sp. tritici / wheat / leaf disc curative (brown rust); format: in vivo; details: foliar, 200 ppm in the applied formulation, wheat leaf segments cv. Kanzler, compound applied 1 day after inoculation, vs untreated, 6 to 8 days after application, read-out: disease control
Outline: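 Wheat leaf segments (cv. Kanzler) on agar inoculated with brown rust spores, held dark at 19 °C/75% RH, then sprayed 1 day post-inoculation with formulated compound diluted in water (curative). Incubated at 19 °C/75% RH, 12 h light/12 h dark; percent disease control versus untreated scored 6–8 days after application.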

For O=C(Nc1ccc(-c2noc(C(F)(F)F)n2)cc1)c1ccccc1C(F)(F)F [Compound 1.1, 2-(trifluoromethyl)-N-[4-[5-(trifluoromethyl)-1,2,4-oxadiazol-3-yl]phenyl]benzamide], the pest or weed control at 200 ppm (Phakopsora pachyrhizi) was no less than 80%, the inhibition of growth at 20 ppm [1] was no less than 80% and the pest or weed control at 100 ppm (Uromyces viciae-fabae) was no less than 80%. For the same compound, the melting point was 162 to 163 °C.

In the case of O=C(Nc1ccc(-c2noc(C(F)(F)F)n2)cc1)c1cn[nH]c1 [Compound 1.11, N-[4-[5-(trifluoromethyl)-1,2,4-oxadiazol-3-yl]phenyl]-1H-pyrazole-4-carboxamide], the pest or weed control at 100 ppm (Uromyces viciae-fabae) is reported as no less than 80% and the melting point is reported as 200 to 204 °C.

Work on O=C(Nc1ccc(-c2noc(C(F)(F)F)n2)cc1)C1CCCO1 (centres unmarked) [Compound 1.41, N-[4-[5-(trifluoromethyl)-1,2,4-oxadiazol-3-yl]phenyl] tetrahydrofuran-2-carboxamide] yielded a pest or weed control at 200 ppm [2] of no less than 80%, a pest or weed control at 200 ppm [3] of no less than 80% and a pest or weed control at 200 ppm (Phakopsora pachyrhizi) of no less than 80%. It also gave an inhibition of growth at 20 ppm [1] of no less than 80%, a pest or weed control at 100 ppm (Uromyces viciae-fabae) of no less than 80% and a melting point of 115 to 120 °C.

For O=C(Nc1ccc(-c2noc(C(F)(F)F)n2)cn1)c1ccccc1 [Compound 1.46, N-[5-[5-(trifluoromethyl)-1,2,4-oxadiazol-3-yl]-2-pyridyl]benzamide], the pest or weed control at 200 ppm (Phakopsora pachyrhizi) was no less than 80%, the pest or weed control at 100 ppm (Uromyces viciae-fabae) was no less than 80% and the melting point was 172.8 to 174.3 °C.

Work on CC(C)(C)NC(=O)CN(C(=O)C1CC1)c1ccc(-c2noc(C(F)(F)F)n2)cc1 [Compound 1.60, N-[2-(tert-butylamino)-2-oxo-ethyl]-N-[4-[5-(trifluoromethyl)-1,2,4-oxadiazol-3-yl]phenyl]cyclopro-panecarboxamide] yielded an inhibition of growth at 20 ppm [1] of no less than 80%, a pest or weed control at 100 ppm (Uromyces viciae-fabae) of no less than 80% and a melting point of 110 to 112 °C.

Work on COCC(=O)N(c1ccc(-c2noc(C(F)(F)F)n2)cc1)C(C)C(=O)NC(C)(C)C (centres unmarked) [Compound 1.62, N-tert-butyl-2-[N-(2-methoxyacetyl)-4-[5-(trifluoromethyl)-1,2,4-oxadiazol-3-yl]anilino] propanamide] yielded a pest or weed control at 100 ppm (Uromyces viciae-fabae) of no less than 80% and a melting point of 115 to 117 °C.

CONC(=O)Nc1ccc(-c2noc(C(F)(F)F)n2)cn1 [Compound 1.63, 1-methoxy-3-[5-[5-(trifluoromethyl)-1,2,4-oxadiazol-3-yl]-2-pyridyl]urea] gave a pest or weed control at 200 ppm (Phakopsora pachyrhizi) of no less than 80%, an inhibition of growth at 20 ppm [1] of no less than 80% and a melting point of 151 to 154 °C.

CCN(OC)C(=O)Nc1ccc(-c2noc(C(F)(F)F)n2)cc1 [Compound 1.67, 1-ethyl-1-methoxy-3-[4-[5-(trifluoromethyl)-1,2,4-oxadiazol-3-yl]phenyl]urea] showed a pest or weed control at 200 ppm [2] of no less than 80%, a pest or weed control at 200 ppm [3] of no less than 80% and a pest or weed control at 200 ppm (Phakopsora pachyrhizi) of no less than 80%. It also gave an inhibition of growth at 20 ppm [1] of no less than 80% and a melting point of 113 to 116 °C.

With COCCN(OC)C(=O)Nc1ccc(-c2noc(C(F)(F)F)n2)cc1 [Compound 1.68, 1-methoxy-1-(2-methoxyethyl)-3-[4-[5-(trifluoromethyl)-1,2,4-oxadiazol-3-yl]phenyl]urea] the pest or weed control at 200 ppm [2] was no less than 80%, the pest or weed control at 200 ppm [3] was no less than 80% and the pest or weed control at 200 ppm (Phakopsora pachyrhizi) was no less than 80%. It also gave an inhibition of growth at 20 ppm [1] of no less than 80% and a melting point of 89 to 92 °C.

For C=C(C)CONC(=O)Nc1ccc(-c2noc(C(F)(F)F)n2)cc1 [Compound 1.70, 1-(2-methylallyloxy)-3-[4-[5-(trifluoromethyl)-1,2,4-oxadiazol-3-yl]phenyl]urea], the pest or weed control at 200 ppm [2] was no less than 80%, the pest or weed control at 200 ppm [3] was no less than 80% and the pest or weed control at 200 ppm (Phakopsora pachyrhizi) was no less than 80%. The inhibition of growth at 20 ppm [1] was no less than 80% and the melting point was 134 to 137 °C.

With CON1CCN(C(=O)Nc2ccc(-c3noc(C(F)(F)F)n3)cc2)CC1 [Compound 1.130, 4-methoxy-N-[4-[5-(trifluoromethyl)-1,2,4-oxadiazol-3-yl]phenyl]piperazine-1-carboxamide] the pest or weed control at 200 ppm [2] was no less than 80%, the pest or weed control at 200 ppm [3] was no less than 80% and the pest or weed control at 200 ppm (Phakopsora pachyrhizi) was no less than 80%. For the same compound, the inhibition of growth at 20 ppm [1] was no less than 80% and the melting point was 164 to 167 °C.

C=C(C)CON(C)C(=O)Nc1ccc(-c2noc(C(F)(F)F)n2)cc1 [Compound 1.131, 1-methyl-1-(2-methylallyloxy)-3-[4-[5-(trifluoromethyl)-1,2,4-oxadiazol-3-yl]phenyl]urea] showed a pest or weed control at 200 ppm [2] of no less than 80%, a pest or weed control at 200 ppm [3] of no less than 80% and a pest or weed control at 200 ppm (Phakopsora pachyrhizi) of no less than 80%. For the same compound, the inhibition of growth at 20 ppm [1] was no less than 80% and the melting point was 65 to 68 °C.

In the case of CONC(=O)N(C)c1ccc(-c2noc(C(F)(F)F)n2)cc1 [Compound 1.132, 3-methoxy-1-methyl-1-[4-[5-(trifluoromethyl)-1,2,4-oxadiazol-3-yl]phenyl]urea], the pest or weed control at 200 ppm [2] is reported as no less than 80%, the pest or weed control at 200 ppm [3] is reported as no less than 80% and the inhibition of growth at 20 ppm [1] is reported as no less than 80%. It also gave a melting point of 73 to 76 °C.

COCC(=O)Nc1ccc(-c2noc(C(F)(F)F)n2)cc1 [Compound 2.1, 2-methoxy-N-[4-[5-(trifluoromethyl)-1,2,4-oxadiazol-3-yl]phenyl]acetamide] showed a pest or weed control at 200 ppm [2] of no less than 80%, a pest or weed control at 200 ppm [3] of no less than 80% and a pest or weed control at 200 ppm (Phakopsora pachyrhizi) of no less than 80%. It also gave an inhibition of growth at 20 ppm [1] of no less than 80%, a pest or weed control at 100 ppm (Uromyces viciae-fabae) of no less than 80% and a melting point of 93 to 94 °C.

O=C(Nc1ccc(-c2noc(C(F)(F)F)n2)cc1)C(F)(F)F [Compound 2.2, 2,2,2-trifluoro-N-[4-[5-(trifluoromethyl)-1,2,4-oxadiazol-3-yl]phenyl]acetamide] showed an inhibition of growth at 20 ppm [1] of no less than 80%, a pest or weed control at 100 ppm (Uromyces viciae-fabae) of no less than 80% and a melting point of 146 to 147 °C.

C=CCONC(=O)Nc1ccc(-c2noc(C(F)(F)F)n2)cc1 [Compound 2.3, 1-allyloxy-3-[4-[5-(trifluoromethyl)-1,2,4-oxadiazol-3-yl]phenyl]urea] gave a pest or weed control at 200 ppm [2] of no less than 80%, a pest or weed control at 200 ppm [3] of no less than 80% and a pest or weed control at 200 ppm (Phakopsora pachyrhizi) of no less than 80%. For the same compound, the inhibition of growth at 20 ppm [1] was no less than 80%, the pest or weed control at 100 ppm (Uromyces viciae-fabae) was no less than 80% and the melting point was 124 to 127 °C.

CCC(=O)N(C)c1ccc(-c2noc(C(F)(F)F)n2)cc1 [Compound 2.17, N-methyl-N-[4-[5-(trifluoromethyl)-1,2,4-oxadiazol-3-yl]phenyl] propanamide] gave a pest or weed control at 200 ppm [2] of no less than 80%, a pest or weed control at 200 ppm [3] of no less than 80% and a pest or weed control at 200 ppm (Phakopsora pachyrhizi) of no less than 80%. For the same compound, the inhibition of growth at 20 ppm [1] was no less than 80% and the melting point was 78 to 86 °C.

For O=C(Nc1ccc(-c2noc(C(F)(F)F)n2)cc1)N1CCCCO1 [Compound 2.23, N-[4-[5-(trifluoromethyl)-1,2,4-oxadiazol-3-yl]phenyl]oxazinane-2-carboxamide], the pest or weed control at 200 ppm [2] was no less than 80%, the pest or weed control at 200 ppm [3] was no less than 80% and the pest or weed control at 200 ppm (Phakopsora pachyrhizi) was no less than 80%. It also gave an inhibition of growth at 20 ppm [1] of no less than 80% and a melting point of 117 to 120 °C.
